From ChEMBL document CHEMBL1949630, “Discovery of benzodihydroisofurans as novel, potent, bioavailable and brain-penetrant prolylcarboxypeptidase inhibitors” (Bioorg Med Chem Lett, 2012)

Legend:
[1] = target: T1, Lysosomal Pro-X carboxypeptidase (Mus musculus, UniProt Q7TMR0); experiment: Inhibition of mouse PrCP
T1 sequence (Q7TMR0 whole entry): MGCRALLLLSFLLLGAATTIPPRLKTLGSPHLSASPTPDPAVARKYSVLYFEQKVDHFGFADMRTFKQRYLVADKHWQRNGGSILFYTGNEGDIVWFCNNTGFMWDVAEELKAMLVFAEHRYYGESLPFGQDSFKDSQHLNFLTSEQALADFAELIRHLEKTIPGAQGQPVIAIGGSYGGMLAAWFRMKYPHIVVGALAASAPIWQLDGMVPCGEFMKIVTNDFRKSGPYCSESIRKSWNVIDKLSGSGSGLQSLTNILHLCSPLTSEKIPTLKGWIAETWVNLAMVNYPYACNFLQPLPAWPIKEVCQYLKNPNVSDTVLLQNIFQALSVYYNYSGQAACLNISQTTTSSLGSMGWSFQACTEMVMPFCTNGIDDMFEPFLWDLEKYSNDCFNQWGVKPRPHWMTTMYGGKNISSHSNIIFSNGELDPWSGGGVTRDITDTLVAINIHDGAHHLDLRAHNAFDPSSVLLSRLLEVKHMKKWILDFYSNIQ

[2] = Clearance in C57BL/6 mouse at 1 mg/kg, iv and 2 mg/kg, po by LC/MS/MS analysis; type: ADME, organism-based; conditions: in vivo
[3] = Oral bioavailability in C57BL/6 mouse at 2 mg/kg by LC/MS/MS analysis; type: ADME, organism-based; conditions: in vivo
[4] = Volume of distribution at steady state in C57BL/6 mouse at 1 mg/kg, iv and 2 mg/kg, po by LC/MS/MS analysis; type: ADME, organism-based; conditions: in vivo, read-out: Vdss
[5] = Half life in C57BL/6 mouse at 1 mg/kg, iv and 2 mg/kg, po by LC/MS/MS analysis; type: ADME, organism-based; conditions: in vivo
Mus musculus [6] = experiment: Dose normalized AUC in C57BL/6 mouse at 2 mg/kg by LC/MS/MS analysis; type: ADME, organism-based; design: dose 2 mg/kg; conditions: in vivo
[7] = target: T1, Lysosomal Pro-X carboxypeptidase; experiment: Inhibition of PrCP in mouse plasma assessed as angiotensin 3 cleavage by whole serum shift assay
[8] = Clearance in C57BL/6 mouse at 0.5 mg/kg, iv and 1 mg/kg, po by LC/MS/MS analysis; type: ADME, organism-based; conditions: in vivo
Mus musculus [9] = experiment: Dose normalized AUC in C57BL/6 mouse at 1 mg/kg by LC/MS/MS analysis; type: ADME, organism-based; design: dose 1 mg/kg; conditions: in vivo
[10] = Volume of distribution at steady state in C57BL/6 mouse at 0.5 mg/kg, iv and 1 mg/kg, po by LC/MS/MS analysis; type: ADME, organism-based; conditions: in vivo, read-out: Vdss
[11] = Half life in C57BL/6 mouse at 0.5 mg/kg, iv and 1 mg/kg, po by LC/MS/MS analysis; type: ADME, organism-based; conditions: in vivo
[12] = Oral bioavailability in C57BL/6 mouse at 1 mg/kg by LC/MS/MS analysis; type: ADME, organism-based; conditions: in vivo
[13] = Fraction unbound in human plasma; type: ADME, cell-free
[14] = Fraction unbound in mouse plasma; type: ADME, cell-free

| clearance [2] [mL/min/kg] | bioavailability [3] [%] | Vd [4] [L/kg] | half-life [5] [h] | AUC/dose (Mus musculus [6]) [µM·kg·h/mg] | clearance [8] [mL/min/kg] | Vd [10] [L/kg] | fraction unbound [13] | fraction unbound [14] | SMILES | IC50 [1] [nM] | IC50 [7] [nM] | AUC/dose (Mus musculus [9]) [µM·kg·h/mg] | half-life [11] [h] | bioavailability [12] [%] |
| --- | --- | --- | --- | --- | --- | --- | --- | --- | --- | --- | --- | --- | --- | --- |
| 8.1 | 53 | 4.4 | 7 | 2.16 |  |  |  |  | FC(F)(F)Oc1ccc(CN2CCC3(CC2)OC(c2cc(Cl)cc(Cl)c2)c2ccccc23)cc1 (centres undefined) | 1 | > 1000 |  |  |  |
|  |  |  |  |  | 69 | 19 |  |  | CC(c1ccc(F)cn1)N1CCC2(CC1)OC(c1cc(Cl)cc(Cl)c1)c1cccnc12 (centres undefined) | 1.1 | 14 | 0.028 | 4 | 5.4 |
|  |  |  |  |  |  |  |  |  | Clc1cc(Cl)cc(C2OC3(CCN(Cc4cc5ccccc5o4)CC3)c3ccccc32)c1 (racemic) | 2.5 | > 1000 |  |  |  |
|  |  |  |  |  |  |  |  |  | FC(F)(F)Oc1ccc(CN2CCC3(CC2)OC(c2cc(Cl)cc(Cl)c2)c2cnccc23)cc1 (racemic) | 5.2 | 427 |  |  |  |
|  |  |  |  |  | 30 | 14 |  |  | FC(F)(F)Oc1ccc(CN2CCC3(CC2)OC(c2ccc(Cl)cn2)c2ccccc23)cc1 (racemic) | 25 |  | 0.46 | 6.5 | 35 |
| 74 | 47 | 28 | 5 | 0.23 |  |  |  |  | FC(F)(F)Oc1ccc(CN2CCC3(CC2)OC(c2cc(Cl)ccn2)c2cccnc23)cc1 (racemic) | 5.8 |  |  |  |  |
|  |  |  |  |  | 96 | 13 |  |  | CC(c1ccc(F)cn1)N1CCC2(CC1)OC(c1cc(Cl)ccn1)c1ccccc12 (racemic) |  |  | 0.032 | 1.7 | 7.8 |
|  |  |  |  |  | 33 | 9.5 | < 0.0006 | < 0.0006 | O=S(=O)(c1ccc(OC(F)(F)F)cc1)N1CCC2(CC1)OC(c1cc(Cl)cc(Cl)c1)c1cccnc12 (racemic) | 1.8 | 712 | 0.33 | 4.8 | 36 |
|  |  |  |  |  | 31 | 14 |  |  | CC(c1ccc(F)cn1)N1CCC2(CC1)OC(c1cc(Cl)cc(Cl)c1)c1ccccc12 (racemic) | 0.31 | 90 | 0.27 | 5.9 | 22 |
|  |  |  |  |  | 126 | 20 |  |  | OCC(c1ccccc1)N1CCC2(CC1)OC(c1cc(Cl)cc(Cl)c1)c1cccnc12 (racemic) | 110 |  | 0.05 | 2.3 | 17 |
|  |  |  |  |  |  |  |  |  | CC(C)(c1ccc(OC(F)(F)F)cc1)N1CCC2(CC1)OC(c1cc(Cl)ccn1)c1cccnc12 (racemic) | 0.39 | 351 | 0.41 | > 8 | 41 |
|  |  |  |  |  | 38 | 7.3 |  |  | CC(C)(O)C(c1ccccc1)N1CCC2(CC1)OC(c1cc(Cl)cc(Cl)c1)c1cccnc12 (racemic) | 5.2 |  | 0.11 | 3.4 | 16 |
|  |  |  |  |  | 87 | 12 | 0.05 | 0.025 | O=S(=O)(c1ccc(C(F)(F)F)cn1)N1CCC2(CC1)OC(c1cc(Cl)cc[n+]1[O-])c1ccccc12 (racemic) | 0.11 |  | 0.1 | 2.1 | 23 |

| SMILES | clearance [2] [mL/min/kg] | bioavailability [3] [%] | Vd [4] [L/kg] | half-life [5] [h] | AUC/dose (Mus musculus [6]) [µM·kg·h/mg] | clearance [8] [mL/min/kg] | Vd [10] [L/kg] | fraction unbound [13] | fraction unbound [14] | IC50 [1] [nM] | IC50 [7] [nM] | AUC/dose (Mus musculus [9]) [µM·kg·h/mg] | half-life [11] [h] | bioavailability [12] [%] |
| --- | --- | --- | --- | --- | --- | --- | --- | --- | --- | --- | --- | --- | --- | --- |
| Fc1ccc(CN2CCC3(CC2)OC(c2cc(Cl)cc(Cl)c2)c2ccccc23)nc1 (centres undefined) |  |  |  |  |  | 28 | 16 |  |  | 2.5 |  | 1.36 | 7 | 22 |
| FC(F)(F)Oc1ccc(CN2CCC3(CC2)OC(c2cc(Cl)cc(Cl)c2)c2cccnc23)cc1 (centres undefined) |  |  |  |  |  | 28 | 8.2 |  |  | 1.4 |  | 0.26 | 4 | 22 |
| FC(F)(F)c1ccc(CN2CCC3(CC2)OC(c2cc(Cl)cc(Cl)c2)c2ccccc23)nc1 (racemic) |  |  |  |  |  | 51 | 11 |  |  | 0.71 | 144 | 0.11 | 4.1 | 16 |
| Clc1cc(Cl)cc(C2OC3(CCN(Cc4ccc(N5CCCC5)cn4)CC3)c3ccccc32)c1 (racemic) |  |  |  |  |  | 7.6 | 4.7 |  |  | 17 |  | 1.22 | 8.5 | 23 |
| FC(F)(F)Oc1ccc(CN2CCC3(CC2)OC(c2cc(Cl)cc(Cl)c2)c2ccncc23)cc1 (racemic) |  |  |  |  |  | 35 | 15 |  |  | 1.3 | 380 | 0.28 | 6.1 | 29 |
| FC(F)(F)Oc1ccc(CN2CCC3(CC2)OC(c2ccccn2)c2ccccc23)cc1 (racemic) |  |  |  |  |  | 70 | 26 |  |  | 20 |  | 0.14 | 5 | 25 |
| CC(c1ccc(F)cn1)N1CCC2(CC1)OC(c1cc(Cl)ccn1)c1cccnc12 (racemic) |  |  |  |  |  | 127 | 17 |  |  | 10.6 | 19 | 0.008 | 2.1 | 2.6 |
| [O-][n+]1ccc(Cl)cc1C1OC2(CCN(Cc3ccc(OC(F)(F)F)cc3)CC2)c2ccccc21 (single isomer, unassigned) | 57 | 72 | 27 | 5.6 | 0.43 |  |  | 0.006 | 0.007 | 0.38 |  |  |  |  |
